Test results as given in US20020090380A1, “Novel formulation comprising thymol useful in the treatment of drug resistant bacterial infections” (priority 2000, published 2002).
Read-outs that look alike come from different tables or passages of the source.

How the values were obtained:
[1] = tested on: Nal^R mutants of E. coli; type: cell-based, Escherichia coli; conditions: 5 μg/ml
[2] = tested on: E. coli CA 8000 (WT); type: cell-based, Escherichia coli; conditions: CA 8000 (WT)
[3] = tested on: lomefloxacin resistant cells of E. coli; type: cell-based, Escherichia coli
[4] = tested on: Ethidium bromide resistant strain of Mycobacterium smegmetis; type: cell-based

Row | Structure (SMILES) | Growth in poison agar medium ([1]; CAN 101) | Growth in poison agar medium ([1]; CAN 102) | Growth in poison agar medium ([1]; CAN 103) | Growth in poison agar medium ([1]; CAN 104) | Growth in poison agar medium ([1]; CAN 105) | Growth in poison agar medium ([1]; CAN 106) | Growth in poison agar medium ([1]; CAN 107) | Growth in poison agar medium ([1]; CAN 108) | Growth in poison agar medium ([1]; CAN 109) | Growth in poison agar medium ([1]; CAN 110) | Growth in poison agar medium ([1]; CAN 111) | Growth in poison agar medium ([1]; CAN 112) | Growth in poison agar medium ([1]; CAN 113) | Growth in poison agar medium ([1]; CAN 114) | Growth in poison agar medium ([1]; CAN 115) | Growth in poison agar medium ([1]; CAN 116) | Growth in poison agar medium ([1]; CAN 117) | Growth in poison agar medium ([1]; CAN 118) | Growth in poison agar medium ([1]; CAN 119) | Growth in poison agar medium ([1]; CAN 120) | other results
1 | CCn1cc(C(=O)O)c(=O)c2cc3c(cc21)OCO3 [Oxolinic Acid, oxolinic acid] | − | − | − | − | − | + | + | + | + | + | + | − | + | + | + | + | + | + | − | − | Growth in poison agar medium ([1]; CAN 121): +; Growth in poison agar medium ([1]; CAN 122): +; Growth in poison agar medium ([1]; CAN 123): +; Growth in poison agar medium ([1]; CAN 124): +; Growth in poison agar medium ([1]; CAN 125): +; Growth in poison agar medium ([1]; CAN 126): +; Growth in poison agar medium ([2]; 5 μg/ml, Table 2): −; Growth in poison agar medium ([2]; 5 μg/ml, Table 4): −; Growth in poison agar medium ([3]; CAL 101, 5 μg/ml): +; Growth in poison agar medium ([3]; CAL 102, 5 μg/ml): +; Growth in poison agar medium ([3]; CAL 103, 5 μg/ml): +; Growth in poison agar medium ([3]; CAL 104, 5 μg/ml): +; Growth in poison agar medium ([3]; CAL 105, 5 μg/ml): +; Growth in poison agar medium ([3]; CAL 106, 5 μg/ml): +; Growth in poison agar medium ([3]; CAL 107, 5 μg/ml): +; Growth in poison agar medium ([3]; CAL 108, 5 μg/ml): +
2 | CO[C@H]1/C=C/O[C@@]2(C)Oc3c(C)c(O)c4c(O)c(c(/C=N/N5CCN(C)CC5)c(O)c4c3C2=O)NC(=O)/C(C)=C\C=C\[C@H](C)[C@H](O)[C@@H](C)[C@@H](O)[C@@H](C)[C@H](OC(C)=O)[C@@H]1C [Rifampicin] |  |  |  |  |  |  |  |  |  |  |  |  |  |  |  |  |  |  |  |  | concentration against which the strain is resistant (mdr) [4]: 40 µg/mL
3 | C[C@@H]1CN(c2c(F)c(N)c3c(=O)c(C(=O)O)cn(C4CC4)c3c2F)C[C@H](C)N1 [Sparfloxacin] | + | + | + | + | + | + | + | + | + | + | + | + | + | + | + | + | + | + | + | + | Growth in poison agar medium ([1]; CAN 121): +; Growth in poison agar medium ([1]; CAN 122): +; Growth in poison agar medium ([1]; CAN 123): +; Growth in poison agar medium ([1]; CAN 124): +; Growth in poison agar medium ([1]; CAN 125): +; Growth in poison agar medium ([1]; CAN 126): +; Growth in poison agar medium ([2]; 5 μg/ml, Table 2): −; Growth in poison agar medium ([2]; 20 μg/ml, Table 4): −; Growth in poison agar medium ([3]; CAL 101, 20 μg/ml): +; Growth in poison agar medium ([3]; CAL 102, 20 μg/ml): +; Growth in poison agar medium ([3]; CAL 103, 20 μg/ml): +; Growth in poison agar medium ([3]; CAL 104, 20 μg/ml): +; Growth in poison agar medium ([3]; CAL 105, 20 μg/ml): +; Growth in poison agar medium ([3]; CAL 106, 20 μg/ml): +; Growth in poison agar medium ([3]; CAL 107, 20 μg/ml): +; Growth in poison agar medium ([3]; CAL 108, 20 μg/ml): +
4 | CN(C)[C@@H]1C(O)=C(C(N)=O)C(=O)[C@@]2(O)C(O)=C3C(=O)c4c(O)cccc4[C@@](C)(O)[C@H]3C[C@@H]12 [Tetracycline] |  |  |  |  |  |  |  |  |  |  |  |  |  |  |  |  |  |  |  |  | concentration against which the strain is resistant (mdr) [4]: 10 µg/mL
